Assay results published in patent US20070213402A1, “Compounds which interact with the thyroid hormone receptor for the treatment of fibrotic disease” (priority 1998, published 2007).

What was measured:
[1] = tested on: collagenase (MMP-1) promoter; assay: Experiment 4.3: collagenase (MMP-1) promoter-luciferase in MCF-7 cells with transfected chick thyroid hormone receptor; type: cell-based, human; settings: MCF-7 + chick thyroid hormone receptor; for % Control: Blank = 100
Method: (§1) These experiments were intended to identify the receptor through which compounds I might be acting to block collagenase promoter activity.
(§2) Transfection procedure hereinbefore described with CV1 cells was repeated using MCF-7 mammary breast cancer cells derived from pleural effusion from a breast cancer patient. Additionally, each experiment included transfection of a plasmid (at 8 ug per 5×10^5 cells) containing the −517/+63 section of the collagenase (MMP-1) promoter linked to the luciferase gene. TPA was used as above to stimulate activity of the collagenase promoter resulting in luciferase production. Compound II or 3,3,5-triiodo-L-thyronine (T3) was included (both at 10^−8M), the latter being a known ligand for the thyroid hormone receptor.

[2] = tested on: collagenase (MMP-1) promoter; assay: Experiment 4.1: collagenase (MMP-1) promoter (-517/+63)-luciferase in MCF-7 cells, endogenous thyroid hormone receptors; type: cell-based, human; settings: MCF-7, endogenous thyroid hormone receptors; for % Control: Blank = 100
Method: as §1, §2
Experiment 4.1. As MCF-7 cells express endogenous thyroid hormone receptors, only the collagenase promoter plasmid (at 8 ug per 5×10^5 cells) was transfected into the MCF-7 cells.

glucocorticoid receptor = molecular target: T1, glucocorticoid receptor (Homo sapiens, UniProt P04150); assay: Experiment 2: PGL3MMTV-luciferase transactivation in CV1 cells with glucocorticoid receptor (GR1); type: cell-based; settings: for % control (GR1): Blank = 100
T1 construct: expressed in transfected cells; host or cells: CV1 (transformed African Green Monkey kidney cell line)
T1 sequence (P04150 1-777): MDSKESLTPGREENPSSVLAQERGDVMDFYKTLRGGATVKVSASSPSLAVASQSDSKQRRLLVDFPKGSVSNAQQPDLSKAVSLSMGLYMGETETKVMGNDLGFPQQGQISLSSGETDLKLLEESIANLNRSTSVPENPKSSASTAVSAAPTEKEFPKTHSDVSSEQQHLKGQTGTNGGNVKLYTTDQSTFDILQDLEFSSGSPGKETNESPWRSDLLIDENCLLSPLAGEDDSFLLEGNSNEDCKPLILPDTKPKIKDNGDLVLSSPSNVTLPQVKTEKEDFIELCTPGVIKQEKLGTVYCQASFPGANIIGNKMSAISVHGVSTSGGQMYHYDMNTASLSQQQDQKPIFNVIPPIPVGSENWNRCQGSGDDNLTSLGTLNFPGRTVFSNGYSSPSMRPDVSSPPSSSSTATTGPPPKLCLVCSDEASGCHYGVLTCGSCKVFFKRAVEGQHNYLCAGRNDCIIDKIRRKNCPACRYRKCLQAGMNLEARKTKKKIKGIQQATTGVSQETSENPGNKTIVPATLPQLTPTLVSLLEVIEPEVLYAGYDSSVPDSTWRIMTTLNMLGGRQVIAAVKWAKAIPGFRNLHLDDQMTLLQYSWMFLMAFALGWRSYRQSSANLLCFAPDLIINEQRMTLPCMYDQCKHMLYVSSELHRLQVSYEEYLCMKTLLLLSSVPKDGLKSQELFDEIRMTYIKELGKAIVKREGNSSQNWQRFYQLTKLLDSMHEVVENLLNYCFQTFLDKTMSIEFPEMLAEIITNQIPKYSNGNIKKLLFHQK
Excerpt: (§3) Two plasmid constructs were introduced by standard calcium phosphate precipitation of DNA followed by glycerol shock (Ausubel F M, Brent R, Kingston D D, Moore J G et al Current protocols in molecular biology 1994 Greene Publishing Associates/Wiley-Interscience, New York, N.Y.) using a transformed African Green Monkey kidney cell line (CV1) (Schneikert J, Peterziel H, Defossez P-A, Klocker H, de Launoit Y and Cato A C B Androgen receptor-Ets protein interaction is a novel mechanism for steroid hormone-mediated down-modulation of matrix metalloproteinase expression, Journal of Biological Chemistry. Vol 271(39) (pp 23907-23913), 1996).
This experiment was intended to investigate the activation of androgen and corticosteroid receptors by compound I.
CPII was compound II above, clobuzarit, which was used at 10^−7M.

collagenase I promoter = assay: Experiment 1: collagenase I promoter (-73/+63)-luciferase in CV1 cells, no receptor plasmid (Empty); type: cell-based, African Green Monkey; settings: for Raw counts (Empty) / % control (Empty): no receptor; for % control (Empty): Blank = 100
Excerpt: as §3
Accordingly, the following two plasmids were included into CV1 cells described above — • (a) Either of GR1 or pSG5ARF containing glucocorticoid or androgen receptor (AR) respectively, both at 2 ug per 5×10^5 cells, driven by the Rous sarcoma virus promoter, and • (b) a plasmid containing the −73/+63 portion of the collagenase I promoter linked to luciferase gene at 8 ug per 5×10^5 cells.
CPII was compound II above, clobuzarit.

c-jun = assay: Experiment 5: immunoblot of phosphorylated (serine 73) c-jun in rheumatoid fibroblasts; type: cell-based, human; settings: 36 hours, 10 ng/ml TPA plus 5×10^-7M substance, compared to TPA alone (lane 1)
Method: Rheumatoid fibroblasts were cultured from synovium obtained from the knee joint of a patient with rheumatoid arthritis. Cells were cultured in monolayer with DMEM tissue culture medium (Gibco) with the inclusion of 5% v/v charcoal stripped serum in 75 cm^2 flasks. The cells were treated for 36 hours with the addition of 10 ng/ml TPA (phorbol ester) plus 5×10^−7M thyroid hormone, Compound II or Compound III. TPA and drugs were added at time zero and at 30 hours, the TPA addition ensured phosphorylation of c-jun.
After 36 hours, cells were lysed in phosphate buffered saline (PBS) containing protease inhibitors and 0.1% Triton-X-100, and then boiled for 5 minutes in non-reducing gel loading buffer. Samples of cell lysate corresponding to equal cell number were loaded onto a 12.5% SDS polyacrylamide gel, and electrophoresis using a Bio-Rad™, (Bio-Rad Laboratories, California USA) Mini Protean II cell was performed at approximately 100V for one hour.
Transfer of proteins to nitrocellulose membrane was performed using a Bio-Rad Mini Trans-Blot transfer cell.
Immunoblotting was performed using polyclonal rabbit anti-human phosphorylation specific (set 73) c-jun (cat. No 06659, Upstate Biotechnology), or MMP-1 (cat. No. RDI-MMP1Habr, Research Diagnostics) antibodies diluted 1:1000 in Tris buffered saline+3% fat free milk powder. […]

[3] = substance 10^-8M added with TPA
[4] = substance added alone, CPII 10^-8M
[5] = CPII 10^-7M together with Dex 10^-7M
[6] = substance added with TPA 75 ng/ml

- activation of glucocorticoid receptor-driven transcription, in words (glucocorticoid receptor; 10^-7M, compared with Dex): negligible activity
- Raw counts (GR1) (glucocorticoid receptor; [5]): 748249 counts
- % control (GR1) (glucocorticoid receptor; [5]): 20965%
- Raw counts (GR1) (glucocorticoid receptor; substance alone at 10^-7M): 3272 counts
- % control (GR1) (glucocorticoid receptor; substance alone at 10^-7M): 92%
SMILES: CC(C)(OCc1ccc(-c2ccc(Cl)cc2)cc1)C(=O)O [Compound II, 1-[4-(4-chlorophenyl)benzyloxy]-1-methylpropionic acid]
- stimulated collagenase transcription, in words ([1]; TPA): able to reduce stimulated collagenase transcription
- Raw Counts [1, 3]: 4414 counts
- % Control [1, 3]: 202%
- % Control ([1]; substance added alone): 72%
- Raw Counts [1, 4]: 1572 counts
- effect on TPA stimulation of luciferase production, in words [2]: able further to enhance TPA stimulation of luciferase production
- Raw Counts [2, 3]: 352376 counts
- % Control [2, 3]: 2802.2%
- % Control ([2]; substance added alone): 47.9%
- Raw Counts [2, 4]: 6029 counts
- collagenase I (MMP) promoter activity in the absence of either receptor, in words (collagenase I promoter; TPA stimulated and unstimulated, Empty): able to reduce the level
- Raw counts (Empty) (collagenase I promoter; luciferase, substance added alone, TPA 75 ng/ml): 1882 counts
- % control (Empty) (collagenase I promoter; substance added alone): 78%
- Raw counts (Empty) (collagenase I promoter; [6]): 2747 counts
- % control (Empty) (collagenase I promoter; [6]): 115%
- amount of phosphorylation of c-jun (serine 73), band intensity (c-jun): lower intensity
